Our source for the IC50, TdeltaS and selectivity ratio values is ChEMBL document CHEMBL5370558, “Modifications of geldanamycin via CuAAC altering affinity to chaperone protein Hsp90 and cytotoxicity” (Eur J Med Chem, 2023).

Series [1] in a line: Cytotoxicity against human HDF cells assessed as cell growth inhibition incubated for 72 hrs by SRB assay. It counts as toxicity, cell-based. To be noted: HDF cells (normal human dermal fibroblasts, NHDF). (The SRB assay estimates cell density from bound dye.)
The test system of the next series is SK-OV-3. In words: Anticancer activity against human SK-OV-3 cells assessed as cell growth inhibition incubated for 72 hrs by SRB assay. It counts as functional, cell-based. To be noted: Homo sapiens, SK-OV-3, 72 h.
For a further series, the system named is PC-3. The series is described as follows: Anticancer activity against human PC-3 cells assessed as cell growth inhibition incubated for 72 hrs by SRB assay. It counts as functional, cell-based. To be noted: Homo sapiens, PC-3, 72 h.
Series [2] addresses Heat shock protein HSP 90-alpha (Homo sapiens) (UniProt P07900).
Description: Binding affinity to recombinant human HSP90alpha assessed as change in entropy by isothermal titration calorimetry assay
For the next series, the system named is SK-BR-3. The series is described as follows: Anticancer activity against human SK-BR-3 cells assessed as cell growth inhibition incubated for 72 hrs by SRB assay. Format: functional, cell-based. To be noted: Homo sapiens, SK-BR-3, 72 h.
The nature of series [3]: Selectivity index, ratio of IC50 for cytotoxicity against human HDF cells to IC50 for anticancer activity against human PC-3 cells. To be noted: HDF cells versus PC-3 cells, read-out: Ratio IC50. Format: toxicity, cell-based.
Series [4] is described as follows: Selectivity index, ratio of IC50 for cytotoxicity against human HDF cells to IC50 for anticancer activity against human SK-OV-3 cells. It counts as cell-based. To be noted: HDF cells versus SK-OV-3 cells, read-out: Ratio IC50.
Series [5] in a line: Selectivity index, ratio of IC50 for cytotoxicity against human HDF cells to IC50 for anticancer activity against human SK-BR-3 cells. Format: toxicity, cell-based. To be noted: HDF cells versus SK-BR-3 cells, read-out: Ratio IC50.

Regarding `CO[C@H]1/C=C\C=C(/C)C(=O)NC2=CC(=O)C(NCc3cn(CCCOS(=O)(=O)c4ccc(C)cc4)nn3)=C(C[C@@H](C)C[C@H](OC)[C@H](O)[C@@H](C)/C=C(\C)[C@@H]1OC(N)=O)C2=O`, in series [1], the IC50 (usually the concentration needed to halve the response being measured) at 72 h stood at 0.44 µM. In addition, the IC50 worked out at 0.45 µM in the series on SK-OV-3, 0.46 µM in the series with PC-3 and 0.44 µM in the series on SK-BR-3. The TdeltaS in series [2] worked out at 1.41 kcal/mol.
For `CO[C@H]1/C=C\C=C(/C)C(=O)NC2=CC(=O)C(NCc3cn(C/C=C/c4ccccc4)nn3)=C(C[C@@H](C)C[C@H](OC)[C@H](O)[C@@H](C)/C=C(\C)[C@@H]1OC(N)=O)C2=O`, in series [1], the half-inhibitory concentration (IC50) at 72 h stood at 3.38 µM. The IC50 in the series with SK-OV-3 was 1.08 µM; with PC-3, 1.11 µM; in the series with SK-BR-3, 1.16 µM. The compound also showed a TdeltaS in series [2] of -0.884 kcal/mol.
`CO[C@H]1/C=C\C=C(/C)C(=O)NC2=CC(=O)C(NCc3cn(Cc4ccc(Cl)cc4)nn3)=C(C[C@@H](C)C[C@H](OC)[C@H](O)[C@@H](C)/C=C(\C)[C@@H]1OC(N)=O)C2=O`: the IC50 at 72 h in series [1] turned out to be 0.44 µM. Besides, the IC50 stood at 0.23 µM in the series with SK-OV-3, 0.23 µM in the series with PC-3 and 0.24 µM in the series on SK-BR-3. The compound further yielded a TdeltaS in series [2] of -0.86 kcal/mol.
Take `CO[C@H]1/C=C\C=C(/C)C(=O)NC2=CC(=O)C(NCc3cn(Cc4ccccc4I)nn3)=C(C[C@@H](C)C[C@H](OC)[C@H](O)[C@@H](C)/C=C(\C)[C@@H]1OC(N)=O)C2=O`: the selectivity ratio in series [3] is 2.37; in series [4], 2.49; in series [5], 2.55. In addition, the IC50 at 72 h in series [1] was found to be 0.97 µM. Moreover, the IC50 amounted to 0.39 µM in the series on SK-OV-3, 0.41 µM in the series on PC-3 and 0.38 µM in the series with SK-BR-3.
Turning to `C#CCNC1=C2C[C@@H](C)C[C@H](OC)[C@H](O)[C@@H](C)/C=C(\C)[C@H](OC(N)=O)[C@@H](OC)/C=C\C=C(/C)C(=O)NC(=CC1=O)C2=O`, the selectivity ratio in series [3] was 1.8; in series [4], 1.74; in series [5], 1.84. Also, the IC50 at 72 h in series [1] came to 7.36 µM. For the same compound, the IC50 stood at 4.23 µM with SK-OV-3, 4.09 µM in the series with PC-3 and 4.01 µM in the series on SK-BR-3.
In the case of `CO[C@H]1/C=C\C=C(/C)C(=O)NC2=CC(=O)C(NCc3cn(CCN4C(=O)c5ccccc5C4=O)nn3)=C(C[C@@H](C)C[C@H](OC)[C@H](O)[C@@H](C)/C=C(\C)[C@@H]1OC(N)=O)C2=O`, the results for the selectivity ratio in series [3], in series [4] and in series [5] were 1.52, 1.53 and 1.61, respectively. Besides, the IC50 at 72 h in series [1] was 1.96 µM. In addition, the IC50 was 1.28 µM with SK-OV-3, 1.29 µM in the series on PC-3 and 1.22 µM with SK-BR-3.
